# Reference: US11697772B2, “Hydrotropic composition and its uses” (KEMIRA OYJ, priority 2017, dated 2023)
# “And” between values parts separate entries of the source, which are not always exact repeats. Equal values may be shown once. Read-outs that look alike come from different tables or passages of the source.
# Tests used:
# [1] = Critical micelle concentration by optical pendant drop method (surface tension); assay type: physicochemical; settings: in water, superscript L logarithmic fitting, S sigmoidal fitting
# Description: The surface-active molecules (surfactants) dissolve in aqueous solutions as monomers to certain concentration threshold, after which they start to build up into differing aggregates. This concentration threshold is called critical micellar concentration (CMC). However, for many surfactants the CMC is moreover a concentration range, not a specific concentration point, and the width of the range depends greatly on the structure of the compound. […] The optical pendant drop method using a contact angle meter (CAM 200, KSV Instruments, Espoo, Finland) was used for determining the CMCs. In short, a series of differing IL concentrations in water solution was investigated. A pendant-drop of a constant height was formed and the surface tension of the drop was determined based on the drop curvature by using a fitting method according to Young-Laplace equation. The surface tension was determined based on the curvature and plotted as a function of the IL concentration. The surface tension of the drop decreases as a function of increasing surfactant concentration because the singly dispersed IL molecules diffuse and orientate at the air-water interface and therefore reduce the surface tension. When the concentration reaches the CMC, the singly dispersed molecules form aggregates and no additional molecules diffuse to the surface of the drop. Therefore no change in surface tension is observed. The CMCs were determined based on the intersection point of two trend lines fitted based on the data. The surface tension was either plotted as a function of IL concentration or logarithm of the concentration and either sigmoidal or logarithmic fit, respectively, was used. The choice of method was dependent on which method provided the best fit.
# Vibrio fischeri bacteria = assay: Vibrio fischeri toxicity assay (Microtox, decay of bioluminescence); assay type: cell-based
# Description: The toxicities were determined by exposing Vibrio fischeri marine bacteria to aqueous solutions of ILs in differing concentrations. These bacteria have successfully been used for IL toxicity assessments in a myriad of studies. A recent comparison was performed between V. fischeri and three other standardized toxicity assays utilizing aquatic organisms, namely Daphnia magna (a fresh water crustacean), Selenastrum capricomutum (a freshwater algae) and Phaeodactylum tricomutum (a seawater algae).
# The toxicity measurements were performed from an ecotoxicological point of view, since ILs are potentially hazardous for the environment and particularly for organisms in aquatic environments. Therefore, V. fischeri marine bacteria were utilized in these measurements. EC50 values were determined for seven water-soluble surface-active ILs. The ILs in this study included Ch-, GND-, TMG-based ILs with straight and branched (iso and neo forms) fatty acid chains, namely isostearates, decanotes and neodecanoates. As a reference, the toxicities of the sodium salts of these carboxylates were measured in order to obtain information on the effect of the cation on the toxicities of the ILs.
# The toxicities of the ILs were defined by measuring their EC50 values using V. fischeri bacteria and Microtox luminometer/thermostate apparatus (Modern Water, USA). The response measured in this assay is the decay of bioluminescence produced by the bacteria. In short, the bioluminescence was measured before the exposure on the potentially toxic compound to determine the baseline luminescence. Consequently, the bacteria were exposed on minimum four differing toxicant concentrations in 2% (w/v) NaCl solution and the decay in the luminescence was recorded. Based on the concentration-dependent decay the EC50 value was defined. The toxicities were defined at set time intervals of 5 and 15 minutes. Two independent measurements were performed for each IL as duplicates.
# [2] = Differential scanning calorimetry of IL/DPPC liposome mixtures (main phase transition); assay type: physicochemical; settings: for Loss of transition (concentration range within which the phase transition was no longer detected): DPPC liposomes 0.4 mM lipid, DSC heating scans
# Description: The median effective concentrations (EC50) were determined for each IL. Since the toxic effect was thought to be caused by permeation of these surface-active molecules into the cell wall of the bacteria, related interactions of ILs with biomimetic liposomes were investigated utilizing differential scanning calorimetry (DSC). In DSC experiments, dipalmitoyl phosphatidylcholine (DPPC) liposomes were used as biomimicking membranes and the change in the main phase transition temperature (Tm) of the DPPC bilayer was followed, as a function of the IL concentrations. Such measurements could potentially offer more information on how the aforementioned ILs interact with the lipid bilayers. Lastly, the critical micelle concentrations (CMC) were defined for the ILs. Based on the CMCs, it can be defined if the ILs are dissolved as singly dispersed molecules or form a dispersion of spherical micelles, or other self-assembled structures (aggregates). Therefore, it can be determined if the interactions with the bacteria or liposomes take place between IL aggregates or singly dispersed IL molecules.
# The DSC experiments were performed in order to find out the IL concentrations that induce the drift in the DPPC bilayer phase transition temperature. FIG. 3 illustrates the representative endotherms, which were recorded during the second heating scans. Since the heating and the cooling scans were performed three times, the second heating endotherm was selected as the representative one. […] If the baseline variations observed during the first heating scans were not observed on the following two scans and with other concentrations of the same ILs, they were regarded as artefacts. […] Cooling scans (not shown) were recorded in order to follow the stability of the system, however, no further analysis of the cooling scans was performed. Such heating and cooling scans are standard in DSC experiments.
# The DSC results are discussed in more detail in the following text for each IL carboxylate group. Instead of referring to the peak areas, which define the energy taken by the transition (cal/° C./mol), corresponding peak heights are referred to in the text, since the relative changes in the peak heights are more easily observed by visual inspection.
# A stock solution of DPPC was prepared by dissolving DPPC in chloroform. Required amount of the stock solution was transferred into a glass test tube and the chloroform was evaporated under airflow in order to form a thin film of DPPC on the walls of the tube. The air-dried lipid film was held under vacuum desiccator at least for 2 h to remove the residual solvent. The lipid was dispersed into water to obtain a 4.0 mM liposome stock. The dispersion was incubated in an ultrasonication water bath for 30 min at 60° C. facilitating the formation of multilamellar liposomes.
# DSC was utilized in observing the changes induced by the ILs in the organization of the lipid bilayers. Here DPPC was used because the Tm of the bilayer is well recognized—approximately 41.3° C. […] There are two additional transitions observed for DPPC aqueous solutions; the subtransition at 21° C. and the pretransition at 36° C.
# [3] = DPPC liposomes, earlier DSC investigation; cited from earlier work
# [4] = Vibrio fischeri, 5 min incubation, 2% (w/v) NaCl solution, read-out: EC50 5min
# [5] = Vibrio fischeri, 15 min incubation, 2% (w/v) NaCl solution, read-out: EC50 15min
# [6] = Aliivibrio fischeri, 5 min, Vibrio fischeri, 5 min incubation, 2% (w/v) NaCl solution, read-out: EC50 5min
# [7] = Aliivibrio fischeri, 0.25 h, Vibrio fischeri, 15 min incubation, 2% (w/v) NaCl solution, read-out: EC50 15min
compound,measurement,setting,value
"1,1,3,3-Tetramethylguanidinium isostearate [TMG Isostearate]",CMC (critical micelle concentration),[1],0.30 ± 0.04^S mM
same,EC50,Vibrio fischeri bacteria; [4],94 ± 1 µM
same,EC50,Vibrio fischeri bacteria; [5],62 ± 5 µM
same,Loss of transition (concentration range within which the phase transition was no longer detected),[2],0.5 to 1.0 mM
"CC(C)(C)CCCCCC(=O)[O-].[Na+] [Na Neodecanoate, sodium neodecanoate, reference compound]",CMC (critical micelle concentration),[1],422 ± 38^L mM
same,EC50,"Vibrio fischeri bacteria; Aliivibrio fischeri, 5 min, read-out: EC50 5min",500 ± 20 µM
same,EC50,"Vibrio fischeri bacteria; Aliivibrio fischeri, 0.25 h, read-out: EC50 15min",473 ± 6 µM
same,Loss of transition (concentration range within which the phase transition was no longer detected),[2],40 to 60 mM
"CC(C)CCCCCCCCCCCCCCC(=O)[O-].[Na+] [Na Isostearate, sodium isostearate, reference compound]",CMC (critical micelle concentration),[1],0.72 ± 0.06^L mM
same,EC50,Vibrio fischeri bacteria; [6],110 ± 10 µM
same,EC50,Vibrio fischeri bacteria; [7],81 ± 4 µM
same,Loss of transition (concentration range within which the phase transition was no longer detected),[2],0.001 to 0.01 mM
choline decanoate [Ch Decanoate],EC50,Vibrio fischeri bacteria; [4],100 ± 20 µM
same,EC50,Vibrio fischeri bacteria; [5],100 ± 20 µM
same,Loss of transition (concentration range within which the phase transition was no longer detected),[2],2.0 to 5.0 mM
same,concentrations at which the ILs affected the liposomes,"[2]; DPPC liposomes 0.4 mM, DSC",0.5 to 5 mM
choline neodecanoate [Ch Neodecanoate],CMC (critical micelle concentration),[1],319 ± 13^L mM
same,EC50,Vibrio fischeri bacteria; [4],560 ± 60 µM
same,EC50,Vibrio fischeri bacteria; [5],520 ± 80 µM
same,highest concentration at which the transition peak was still observed,"[2]; 0.4 mM DPPC, no higher concentrations measured",60 mM
"CCCCCCCCCC(=O)[O-].[Na+] [Na decanoate, sodium decanoate, reference compound]",CMC (critical micelle concentration),[1],22±3 mM and 22 ± 3^L mM
same,EC50,Vibrio fischeri bacteria; [6],130 ± 20 µM
same,EC50,Vibrio fischeri bacteria; [7],130 ± 20 µM
same,Tm of DPPC bilayer,"[2]; 50 mM IL, 0.4 mM DPPC",above 35 °C
CCCCCCCCC(=O)[O-].C[N+](C)(C)CCO [Ch nonanoate],highest concentration at which a peak for the Tm was still observed,[3],50 mM
guanidinium neodecanoate [GND Neodecanoate],CMC (critical micelle concentration),[1],118 ± 2^L mM
same,EC50,Vibrio fischeri bacteria; [4],730 ± 90 µM
same,EC50,Vibrio fischeri bacteria; [5],690 ± 70 µM
same,Loss of transition (concentration range within which the phase transition was no longer detected),[2],15.0 to 25.0 mM
"1,1,3,3-tetramethylguanidinium neodecanoate [TMG Neodecanoate]",CMC (critical micelle concentration),[1],261 ± 11^L mM
same,EC50,Vibrio fischeri bacteria; [4],700 ± 70 µM
same,EC50,Vibrio fischeri bacteria; [5],650 ± 70 µM
Choline isostearate [Ch Isostearate],CMC (critical micelle concentration),[1],0.50 ± 0.06^L mM
same,CMC (critical micelle concentration),[1]; listed as Ch isostearate,~0.5 mM
same,EC50,Vibrio fischeri bacteria; [4],130 ± 20 µM
same,EC50,Vibrio fischeri bacteria; [5],74 ± 5 µM
same,Loss of transition (concentration range within which the phase transition was no longer detected),[2],0.5 to 1.0 mM
Guanidinium isostearate [GND Isostearate],CMC (critical micelle concentration),[1],0.31 ± 0.08^S mM
same,EC50,Vibrio fischeri bacteria; [4],98 ± 2 µM
same,EC50,Vibrio fischeri bacteria; [5],66 ± 5 µM
same,Loss of transition (concentration range within which the phase transition was no longer detected),[2],0.5 to 1.0 mM
